Values joined by “and” are separate entries in the source; they are usually repeats but may differ in a detail not shown here. Equal values may be shown once. Read-outs that look alike come from different tables or passages of the source.
Biological target: T1, GPR139 (Homo sapiens, UniProt Q6DWJ6)
T1 sequence (Q6DWJ6 1-353): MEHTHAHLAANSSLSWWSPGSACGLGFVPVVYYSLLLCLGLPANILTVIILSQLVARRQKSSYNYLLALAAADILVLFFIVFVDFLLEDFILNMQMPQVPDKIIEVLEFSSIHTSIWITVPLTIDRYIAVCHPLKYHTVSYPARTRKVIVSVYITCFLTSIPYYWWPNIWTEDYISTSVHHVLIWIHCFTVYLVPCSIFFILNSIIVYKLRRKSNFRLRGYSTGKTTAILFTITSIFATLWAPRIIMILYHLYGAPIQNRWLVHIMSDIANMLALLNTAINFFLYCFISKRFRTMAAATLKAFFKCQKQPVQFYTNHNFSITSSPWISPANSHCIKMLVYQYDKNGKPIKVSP
Experiment: Inositol monophosphate (IP1) accumulation assay, GPR139-CHOk1
Assay type: cell-based
Details: for Emax: normalized to Lundbeck Cmp 1a
Procedure: Primary screening and pharmacological characterization of compounds were performed using a CHO-K1 cell line that stably expresses human GPR139 (GPR139-CHOk1). The GPR139-CHOk1 cell line was kindly provided by H. Lundbeck A/S, Denmark[24]. GPR139-CHOk1 cells were grown in Ham’s F-12 Kaighn’s Modification Medium (ThermoFisher #21127030) supplemented with 10% dialyzed fetal bovine serum (US origin, ThermoFisher #26400044), 100 units/mL Penicillin-Streptomycin (ThermoFisher #15140122), and 1 mg/mL Geneticin (ThermoFisher #11811031). […] M1R-CHOk1 cells were purchased from The Missouri S&T cDNA Resource Center (#CEM100TN00). M1R-CHOk1 cells were grown in Ham’s F12 Medium (ThermoFisher #21765029) supplemented with 10% fetal bovine serum (Brazilian origin, ThermoFisher #10270106), 100 units/mL Penicillin-Streptomycin, and 0.25 mg/mL Geneticin. HEK293A cells transiently transfected with GPR139 were used for additional pharmacological assessment of signaling pathways activated by GPR139. HEK239A cells were generously provided by Dr. Asuka Inoue, Tohoku University, Japan. HEK293A cells were grown in Dulbecco’s Modified Eagle Medium (ThermoFisher #31966047) supplemented with 10% dialyzed fetal bovine serum and 100 units/mL Penicillin-Streptomycin. Cell lines were maintained at 37 °C in humidified incubator equilibrated with 5% CO2.
HTRF IP-One Gq kit (Cisbio #62IPAPEC) was used to detect the accumulation of inositol monophosphate (IP1) as described in the work by Shehata et al.[26]. GPR139-CHOk1 cells were dissociated and resuspended in HEPES buffer. 50,000 cells in 5 µL and 5 µL test compounds diluted from DMSO stocks (final DMSO concentration of maximally 0.3%) in HEPES buffer supplemented with 40 mM LiCl were mixed in each well of white 384-well OptiPlate (PerkinElmer #6007290). The cells were incubated for 1 h at 37 °C. Then, 10 µL detection reagent composed of 2.5% Eu3 + -anti-IP1 antibody and 2.5% IP1-d2 diluted in lysis buffer was added, and the cells were incubated for 1 h at room temperature before measurements. Measurements were performed on EnVision Multimode Plate Reader (PerkinElmer) using excitation light of 340 nm and emission light of 615 nm and 665 nm. The time resolved-fluorescence resonance energy transfer (TR-FRET) 665 nm/615 nm ratio, which is inversely proportional to the IP1 accumulation, was used to determine the IP1 response.
Pharmacological data and statistical analyses were performed in GraphPad Prism v9–10 (Graphpad Software Inc., San Diego, CA), which are also specifically described in the figure and table legends. The functional assay responses were normalized to buffer (0%) and Lundbeck Cmp 1a or JNJ-63533054 (100%), for Ca^2+ and IP1 experiments in the GPR139-CHOk1 stable cell line or Ca^2+, G protein activation, and arrestin-3 recruitment experiments in the HEK293A cells transiently transfected with GPR139, respectively. Data are from at least three independent experiments, unless stated otherwise. Concentration-response curves were fitted applying non-linear regression using the log (agonist) versus response model with variable slope. ANOVA was applied for comparing results and determining statistical significance. Comparison of responses to the reference was performed using one-way ANOVA with Dunnett’s multiple comparisons test at significance threshold of p < 0.05. Comparison of responses across assays and ligands was performed using two-way ANOVA with Tukey’s multiple comparisons test at a significance threshold of p < 0.05.

[1] = Supplementary Table 2, mean ± SEM, read-out: pEC50 IP1 (converted)
[2] = Supplementary Table 2, read-out: Emax (%) IP1
[3] = log [Compound] M -4.5, replicate experiments
[4] = log [Compound] M -5.0, replicate experiments
[5] = log [Compound] M -5.5, replicate experiments
[6] = log [Compound] M -6.0, replicate experiments
[7] = log [Compound] M -6.5, replicate experiments
[8] = log [Compound] M -7.0, replicate experiments
[9] = log [Compound] M -7.5, replicate experiments
[10] = log [Compound] M -8.0, replicate experiments
[11] = read-out: pEC50 IP1 (converted)

SMILES | EC50 [1] [µM] | Emax [2] [%] | IP1 response (% of Cmp 1a) [3] | IP1 response (% of Cmp 1a) [4] | IP1 response (% of Cmp 1a) [5] | IP1 response (% of Cmp 1a) [6] | IP1 response (% of Cmp 1a) [7] | IP1 response (% of Cmp 1a) [8] | IP1 response (% of Cmp 1a) [9] | IP1 response (% of Cmp 1a) [10] | EC50 [11] [µM] | further results
Cc1cc(-c2nc(CC(=O)NC(C)c3ccccc3)no2)n(C)n1 (stereo not drawn) [Compound 1.16, CC(C1=CC=CC=C1)NC(CC2=NOC(C3=CC(C)=NN3C)=N2)=O] | 2.51 | 118 ± 5 | – | – | – | – | – | – | – | – | – | IP1 response (% of Cmp 1a) (log [compound] M -4.5, individual replicates): 95 % of Cmp 1a and 98 % of Cmp 1a and 122 % of Cmp 1a and 128 % of Cmp 1a; IP1 response (% of Cmp 1a) (log [compound] M -5.0, individual replicates): 115 % of Cmp 1a and 88 % of Cmp 1a and 90 % of Cmp 1a and 87 % of Cmp 1a; IP1 response (% of Cmp 1a) (log [compound] M -5.5, individual replicates): 53 % of Cmp 1a and 54 % of Cmp 1a and 79 % of Cmp 1a and 67 % of Cmp 1a; IP1 response (% of Cmp 1a) (log [compound] M -6.0, individual replicates): 44 % of Cmp 1a and 38 % of Cmp 1a (2×) and 47 % of Cmp 1a; IP1 response (% of Cmp 1a) (log [compound] M -6.5, individual replicates): 8 % of Cmp 1a and 17 % of Cmp 1a and 10 % of Cmp 1a and 15 % of Cmp 1a; IP1 response (% of Cmp 1a) (log [compound] M -7.0, individual replicates): -3.74 % of Cmp 1a and -1.83 % of Cmp 1a and 5.46 % of Cmp 1a and 8 % of Cmp 1a; IP1 response (% of Cmp 1a) (log [compound] M -7.5, individual replicates): -0.538 % of Cmp 1a and 1 % of Cmp 1a and -0.216 % of Cmp 1a and 6 % of Cmp 1a; IP1 response (% of Cmp 1a) (log [compound] M -8.0, individual replicates): -11 % of Cmp 1a and -1 % of Cmp 1a and 0.939 % of Cmp 1a and 0.124 % of Cmp 1a
COC(=O)c1cc(NC(=O)NC(C)c2cccc(F)c2F)ccc1C (stereo not drawn) [Compound 2, COC(=O)C=1C=C(NC(=O)NC(C)C=2C=CC=C(F)C2F)C=CC1C] | 1.58 | 85 ± 8 | 75 % of Cmp 1a and 55 % of Cmp 1a and 76 % of Cmp 1a and 90 % of Cmp 1a | 64 % of Cmp 1a and 44 % of Cmp 1a and 66 % of Cmp 1a and 76 % of Cmp 1a | 50 % of Cmp 1a and 41 % of Cmp 1a and 46 % of Cmp 1a and 65 % of Cmp 1a | 34 % of Cmp 1a and 26 % of Cmp 1a and 28 % of Cmp 1a and 41 % of Cmp 1a | 18 % of Cmp 1a and 16 % of Cmp 1a and 10 % of Cmp 1a and 22 % of Cmp 1a | 8 % of Cmp 1a (2×) and 5 % of Cmp 1a and 3.81 % of Cmp 1a | 6.59 % of Cmp 1a and -1 % of Cmp 1a and 0.549 % of Cmp 1a and 2.33 % of Cmp 1a | 1.89 % of Cmp 1a and -0.926 % of Cmp 1a and 0.158 % of Cmp 1a and 0.886 % of Cmp 1a | – | –
Cc1noc(C(C)NC(=O)Nc2cccc(-c3ccccc3)c2)n1 (stereo not drawn) [Compound 3, CC(NC(=O)NC=1C=CC=C(C1)C=2C=CC=CC2)C3=NC(C)=NO3] | – | – | 41 % of Cmp 1a and 46 % of Cmp 1a and 42 % of Cmp 1a | 22 % of Cmp 1a and 29 % of Cmp 1a and 28 % of Cmp 1a | 8 % of Cmp 1a and 12 % of Cmp 1a and 10 % of Cmp 1a | 0.417 % of Cmp 1a and 2.14 % of Cmp 1a and 6 % of Cmp 1a | -2.63 % of Cmp 1a and 1.42 % of Cmp 1a and -1.19 % of Cmp 1a | -0.0724 % of Cmp 1a and 2 % of Cmp 1a and 0.325 % of Cmp 1a | -1.11 % of Cmp 1a and -1.52 % of Cmp 1a and 2 % of Cmp 1a | -0.434 % of Cmp 1a and 0.295 % of Cmp 1a and 1.29 % of Cmp 1a | 50.1 | –
Cc1noc(CNC(=O)C2(C)CCCCN2C(=O)c2ccccc2)n1 (stereo not drawn) [Compound 4, CC1=NOC(CNC(=O)C2(C)CCCCN2C(=O)C=3C=CC=CC3)=N1] | – | – | 109 % of Cmp 1a and 91 % of Cmp 1a and 86 % of Cmp 1a | 40 % of Cmp 1a and 36 % of Cmp 1a and 37 % of Cmp 1a | 13 % of Cmp 1a and 11 % of Cmp 1a and 14 % of Cmp 1a | 6.46 % of Cmp 1a and 2.74 % of Cmp 1a and 2.36 % of Cmp 1a | -0.931 % of Cmp 1a and -1.18 % of Cmp 1a and 0.0496 % of Cmp 1a | 3.23 % of Cmp 1a and -0.893 % of Cmp 1a and -2.41 % of Cmp 1a | 2.42 % of Cmp 1a and -4 % of Cmp 1a and -2.57 % of Cmp 1a | 1.1 % of Cmp 1a and -0.196 % of Cmp 1a and -1.07 % of Cmp 1a | 12.6 | –
CC(NC(=O)Cn1cncc(-c2ccccc2)c1=O)c1ccccc1 (stereo not drawn) [Compound 5, C[C@@H](NC(=O)CN1C=NC=C(C=2C=CC=CC2)C1=O)C=3C=CC=CC3] | – | – | 68 % of Cmp 1a and 53 % of Cmp 1a and 56 % of Cmp 1a | 33 % of Cmp 1a and 17 % of Cmp 1a and 31 % of Cmp 1a | 13 % of Cmp 1a (2×) and 9 % of Cmp 1a | 7 % of Cmp 1a and -0.0762 % of Cmp 1a and 3.67 % of Cmp 1a | -1.74 % of Cmp 1a and -4 % of Cmp 1a and 0.455 % of Cmp 1a | 2.62 % of Cmp 1a and -1.59 % of Cmp 1a and -2.51 % of Cmp 1a | 0.67 % of Cmp 1a and -2.55 % of Cmp 1a and -3 % of Cmp 1a | -0.409 % of Cmp 1a and -3 % of Cmp 1a and -0.447 % of Cmp 1a | 25.1 | –
CC(NC(=O)CNC(=O)c1cccc(Cl)c1)c1ccccc1 (stereo not drawn) [JNJ-63533054, reference compound] | – | – | 132 % of Cmp 1a and 117 % of Cmp 1a and 179 % of Cmp 1a and 200 % of Cmp 1a | 149 % of Cmp 1a and 120 % of Cmp 1a and 161 % of Cmp 1a and 172 % of Cmp 1a | 112 % of Cmp 1a and 93 % of Cmp 1a and 135 % of Cmp 1a and 165 % of Cmp 1a | 129 % of Cmp 1a and 86 % of Cmp 1a and 138 % of Cmp 1a and 168 % of Cmp 1a | 93 % of Cmp 1a (2×) and 74 % of Cmp 1a and 97 % of Cmp 1a | 56 % of Cmp 1a and 47 % of Cmp 1a and 72 % of Cmp 1a and 84 % of Cmp 1a | 40 % of Cmp 1a and 23 % of Cmp 1a and 36 % of Cmp 1a and 37 % of Cmp 1a | 24 % of Cmp 1a and 9 % of Cmp 1a and 8 % of Cmp 1a and 2 % of Cmp 1a | – | Emax (Supplementary Table 4, read-out: Emax (%), IP1 accumulation): 157 ± 16%; EC50 (Supplementary Table 4, read-out: pEC50, IP1 accumulation (converted)): 0.2 µM

Source: article PMC12775434, “Ultra-large virtual screening unveils potent agonists of the neuromodulatory orphan receptor GPR139” (Nature Communications, 2025)
